Measurements taken from patent US20150018301A1, “LRRK-2-Mediated Neuronal Toxicity” (THE JOHNS HOPKINS UNIVERSITY, priority 2009, published 2015).

How the values were obtained:
[1] = test system: C. elegans expressing LRRK2 G2019S in DA neurons; assay: Transgenic nematode model of LRRK2 G2019S-induced DA neurodegeneration; format: in vivo, Caenorhabditis elegans; conditions: for rescue of DA neurodegeneration: 7 day-old worms; for worms with wild-type DA neurons (4 CEP and 2 ADE): 7-day-old worms, n=90, 48% with 1% DMSO
Method: Nematodes were maintained following the standard procedures. Brenner, S., 771 GENETICS 71-94 (1974). Isogenic worm strains expressing LRRK2, G2019S, UAXX [baInlX; Pdat-1::LRRK2 G2019S, Pdat-1::gfp] were generated via microinjection, integrated into the genome and out-crossed three times. Age-synchronized worms were obtained by treating gravid adults with 2% sodium hypochlorite and 0.5M NaOH to isolate embryos. Lewis, J. A., 48 METHODS CELL BIOL. 3-29 (1995). These embryos were treated with indicated concentrations of LRRK2 kinase inhibitors, which were dissolved in 1% DSMO, for 24 h. at 20° C. with gentle shaking. The worms were then washed and transferred into NGM plates seeded with OP50 bacteria, and incubated as 20° C. The six anterior DA neurons (4 CEP and 2 ADE neurons) of 30 animals/trial were examined for neurodegeneration when the animals were 7 days old. A total of 90 animals for each treatment were analyzed (3 trials of 30 animals/trial). […] See Hamamichi et al., 105(2) PROC. NATL. ACAD. SCI. USA 728-33 (2008); and Cao et al, 25 J. NEUROSCI. 3801-12 (2005). For each trial, 30 worms were transferred into a 2% agarose pad, immobilized with 2 mM levamisole, and analyzed using Nikon Eclipse E800 epifluorescence microscope equipped with Endow GFP HYQ filter cube (Chrom Technology, Rockingham, Vt.). Images were captured with a Cool Snap CCD camera (Photometrics, Tucson, Ariz.) driven by MetaMorph software (Universal Imaging, West Chester, Pa.).
To determine whether the LRRK2 kinase inhibitors protect against LRRK2-induced neurodegeneration in vivo, the LRRK2 kinase inhibitors were tested in the C. elegans model of LRRK2 G2019S-induced neurodegeneration described above. The DA transporter (dat-1) was used to direct expression of LRRK2 G2019S in DA neurons.

[2] = target: G2019S LRRK2 (Homo sapiens, UniProt Q5S007, G2019S); assay: In vitro kinase assay: LRRK2-mediated phosphorylation of 4E-BP1; format: biochemical
Method: The GST-4E-BP1 expressing vector was generated using the Invitrogen Gateway LR Clonase System. Briefly, an entry clone containing the 4E-BP1 sequence was reacted with the destination vector, pDEST-15 in the presence of the LR clonase mixture. After the clonase reaction, the mixture was transformed into One Shot BL21 chemically competent E. coli. The transformed cells were grown on ampicillin containing LB agar plate for one day at 37° C. Colonies containing GST-4E-BP1 were isolated. For protein induction, 100 μM IPTG was added to 100 mL culture and incubated for 3 h at 30° C. After IPTG incubation, cells were collected by centrifugation at 3,000×g for 15 min. The pellet was lysed with sonication in the presence of lysis butter containing 0.5% TX-100, 50 mM Tris-HCl (pH 8.0), 100 mM NaCl, 0.5 mM EGTA, 5 mM MgCl2, 2 mM DTT, and complete protease inhibitors. The lysate was centrifugated at 15,000×g for 15 min and the supernatant was incubated with GSH-sepharose beads for 2 h at 4° C. After incubation, the beads were washed with PBS containing an additional 150 mM NaCl and 0.1% TX-100 three times. The protein was eluted with elution buffer containing Hepes (pH 8.0), 150 mM NaCl, 30% glycerol, and 30 mM glutathione. The eluted proteins were stored at −80° C.
The in vitro kinase assay was performed as previously described. West, A. B. et al. Parkinson's disease-associated mutations in leucine-rich repeat kinase 2 augment kinase activity. Proc Natl Acad Sci USA 102, 16842-16847 (2005). Recombinant LRRK2 and MBP or CST-4E-BP1 were combined before the kinase reaction. LRRK2 autophosphorylation is LRRK2 itself phosphorylation and MBP or GST-4E-BP1 phosphorylation is induced by LRRK2. After the kinase reaction, combined LRRK2 and MBP or GST-4E-BP1 were loaded on SDSPAGE and phosphorylated LRRK2 and MBP or GST-4E-BP1 could be detected separately an a single gel. Recombinant proteins and inhibitors were incubated at 30° C. in kinase assay buffer containing 20 mM Hepes (pH 7.4), 5 mM EGTA, and 20 mM β-glycerol phosphate. 0.5 μg MBP (Upstate) or 0.5 μg GST-4B-BP1, 50 μM ATP (Sigma), 20 mM MgCl2, and 1 μCi [γ-32P] ATP (PerkinElmer) was added after 5 min. The reaction was performed at 30° C. to reduce non-specific 32P incorporation for 15 min and terminated by the addition of 5×Laemmili sample buffer. The reactions were then heated at 70° C. for 10 min and resolved by 12% SDS-PAGE. Gels were stained by coomassie brilliant blue after fixation with 10% acetic acid and 40% methanol and then exposed to a Phosphoimager. Data were analyzed by ImageQuant 6.0 software.

[3] = test system: HSV-G2019S LRRK2 dopaminergic neurotoxicity; assay: HSV amplicon-based mouse model of LRRK2 dopaminergic neurotoxicity; format: in vivo; conditions: for loss of tyrosine hydroxylase-positive neurons induced by HSV-G2019S LRRK2: 2.5 mg per kg i.p. twice daily, 3 weeks, versus DMSO- and indirubin-injected controls
[4] = from literature; cited from earlier work

G2019S LRRK2, sequence (Q5S007 whole entry G2019S): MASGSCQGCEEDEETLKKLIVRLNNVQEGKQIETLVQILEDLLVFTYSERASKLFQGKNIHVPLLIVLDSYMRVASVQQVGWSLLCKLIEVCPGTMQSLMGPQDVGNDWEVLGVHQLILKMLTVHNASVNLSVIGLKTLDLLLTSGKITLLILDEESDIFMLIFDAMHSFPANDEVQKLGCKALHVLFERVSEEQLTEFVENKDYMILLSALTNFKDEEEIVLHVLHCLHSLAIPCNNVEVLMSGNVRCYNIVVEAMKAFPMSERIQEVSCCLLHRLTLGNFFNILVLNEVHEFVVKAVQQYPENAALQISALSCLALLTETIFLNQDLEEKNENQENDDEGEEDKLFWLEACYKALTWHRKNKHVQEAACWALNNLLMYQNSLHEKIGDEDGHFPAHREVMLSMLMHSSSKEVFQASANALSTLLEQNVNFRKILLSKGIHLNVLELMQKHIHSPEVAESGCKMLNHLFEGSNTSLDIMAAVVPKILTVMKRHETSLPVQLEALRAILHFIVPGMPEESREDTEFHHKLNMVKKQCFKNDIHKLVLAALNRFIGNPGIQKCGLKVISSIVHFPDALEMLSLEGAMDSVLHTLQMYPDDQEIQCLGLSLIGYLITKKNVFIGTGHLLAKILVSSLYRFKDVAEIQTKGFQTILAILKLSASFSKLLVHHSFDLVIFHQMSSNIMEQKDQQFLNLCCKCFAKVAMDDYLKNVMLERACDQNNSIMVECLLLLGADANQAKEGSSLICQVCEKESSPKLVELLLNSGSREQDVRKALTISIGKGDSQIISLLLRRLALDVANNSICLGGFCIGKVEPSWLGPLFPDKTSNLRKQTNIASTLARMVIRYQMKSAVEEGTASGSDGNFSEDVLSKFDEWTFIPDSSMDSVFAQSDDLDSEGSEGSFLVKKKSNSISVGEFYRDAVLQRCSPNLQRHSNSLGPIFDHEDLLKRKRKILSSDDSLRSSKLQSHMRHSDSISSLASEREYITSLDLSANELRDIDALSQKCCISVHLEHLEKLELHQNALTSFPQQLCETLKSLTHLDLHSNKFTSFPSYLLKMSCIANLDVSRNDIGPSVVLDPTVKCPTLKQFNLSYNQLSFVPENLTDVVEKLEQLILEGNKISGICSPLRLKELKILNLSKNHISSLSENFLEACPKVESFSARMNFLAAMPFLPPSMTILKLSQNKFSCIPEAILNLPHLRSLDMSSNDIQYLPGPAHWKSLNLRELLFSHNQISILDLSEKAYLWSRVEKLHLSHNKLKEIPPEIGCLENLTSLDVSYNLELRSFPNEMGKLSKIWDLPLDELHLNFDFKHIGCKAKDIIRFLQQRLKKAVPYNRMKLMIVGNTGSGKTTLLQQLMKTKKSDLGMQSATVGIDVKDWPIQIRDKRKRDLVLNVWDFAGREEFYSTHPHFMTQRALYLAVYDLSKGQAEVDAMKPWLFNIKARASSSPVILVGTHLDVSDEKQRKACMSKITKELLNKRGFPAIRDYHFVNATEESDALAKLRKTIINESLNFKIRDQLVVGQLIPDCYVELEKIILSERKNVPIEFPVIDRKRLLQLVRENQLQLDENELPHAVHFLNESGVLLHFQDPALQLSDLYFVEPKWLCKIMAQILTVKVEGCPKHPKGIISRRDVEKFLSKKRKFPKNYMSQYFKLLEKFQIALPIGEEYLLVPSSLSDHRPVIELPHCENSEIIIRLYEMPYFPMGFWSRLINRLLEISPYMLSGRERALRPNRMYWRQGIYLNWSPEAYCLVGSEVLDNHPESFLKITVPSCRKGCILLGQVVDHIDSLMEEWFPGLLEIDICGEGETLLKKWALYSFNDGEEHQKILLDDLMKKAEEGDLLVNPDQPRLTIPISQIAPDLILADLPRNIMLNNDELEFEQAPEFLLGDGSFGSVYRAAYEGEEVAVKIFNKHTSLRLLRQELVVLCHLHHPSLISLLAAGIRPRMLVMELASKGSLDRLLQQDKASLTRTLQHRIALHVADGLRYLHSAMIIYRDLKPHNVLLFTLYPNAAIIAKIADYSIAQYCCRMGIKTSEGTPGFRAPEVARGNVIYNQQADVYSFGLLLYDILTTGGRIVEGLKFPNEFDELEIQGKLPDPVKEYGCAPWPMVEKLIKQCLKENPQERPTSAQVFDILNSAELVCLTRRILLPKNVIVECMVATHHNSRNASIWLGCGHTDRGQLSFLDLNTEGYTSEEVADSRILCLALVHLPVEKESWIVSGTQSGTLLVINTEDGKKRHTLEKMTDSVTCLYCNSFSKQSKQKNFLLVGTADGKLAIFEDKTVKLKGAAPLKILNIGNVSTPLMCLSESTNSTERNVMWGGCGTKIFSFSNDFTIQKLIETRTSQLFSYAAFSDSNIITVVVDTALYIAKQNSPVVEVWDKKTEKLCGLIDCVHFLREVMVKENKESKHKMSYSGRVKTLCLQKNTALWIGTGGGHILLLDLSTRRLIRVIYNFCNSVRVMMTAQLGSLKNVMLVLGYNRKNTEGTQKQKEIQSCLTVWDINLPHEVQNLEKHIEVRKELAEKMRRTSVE

Structure (SMILES) | rescue of DA neurodegeneration [1] | LRRK2-mediated phosphorylation of 4E-BP1 [2] | loss of tyrosine hydroxylase-positive neurons induced by HSV-G2019S LRRK2 [3] | increase in ILB4-positive cells in striatum and substantia nigra pars compacta ([3]; G2019S LRRK2 mice, 2.5 mg/kg i.p. twice daily) | reduction in the density of tyrosine hydroxylase-positive fibers (striatum) ([3]; HSV-LRRK2 G2019S mice, 2.5 mg/kg i.p. twice daily) | worms with wild-type DA neurons (4 CEP and 2 ADE) ([1]; 10 μM) [%] | worms with wild-type DA neurons (4 CEP and 2 ADE) ([1]; 25 μM) [%] | crossing of the blood-brain barrier [4]
Cc1ccc(NC(=O)c2cccc(N(C)C)c2)cc1NC(=O)c1ccc(O)cc1 [Inhibitor 53, ZM336372] | failed to rescue | did not inhibit |  |  |  |  |  | 
O=C1Nc2ccc(I)cc2/C1=C/c1cc(Br)c(O)c(Br)c1 [Inhibitor 56, GW5074] | protect worms from neurodegeneration | inhibited | attenuated | prevented | rescued | 66 | 67 | known to cross the blood-brain barrier
O=C1Nc2ccccc2/C1=C1/Nc2ccccc2/C1=N\O [Inhibitor 70, Indirubin-3-monooxine] |  | inhibited | attenuated |  |  |  |  | known to cross the blood-brain barrier
